Data taken from US20230157991A1, “PHARMACEUTICAL COMPOSITION FOR TREATING ACUTE AND CHRONIC PAIN, CONTAINING POLMACOXIB AND TRAMADOL” (CrystalGenomics, Inc., priority 2017, published 2023).

Tests used:
[1] = test system: MIA-induced osteoarthritis rat model (mechanical allodynia); test: Analgesic efficacy: paw withdrawal threshold (Von Frey, dynamic plantar aesthesiometer) in MIA-induced osteoarthritis rats; assay type: in vivo, Sprague Dawley rats; details: G3 acetaminophen 300 mg/kg+tramadol HCl 30 mg/kg, G4 polmacoxib 0.3 mg/kg, G5 tramadol HCl 30 mg/kg
Protocol: To evaluate analgesic efficacy, paw withdrawal threshold (PWT, g) was measured using a dynamic planter aesthesiometer (Ugo Basile S.R.L, Italy).
Von Frey filament used in this experiment has a constant pressure during bending, thereby imparting a constant stimulation. At this time, physical allodynia appears as an avoidance response, thereby enabling quantification of the pain index.
1) The pain suppression effect was measured by imparting physical stimulation with Von Frey filament using Dynamic plantar aesthesiometer (UGO BASILE 37450, Italy).
2) Rats were placed individually in each acrylic cage, allowing the rats to stay for 15 minutes to habituate to the new environment.
3) After habituation, the aesthesiometer was set to 0 ˜ 50 g and 0 ˜ 20 s. The measurement of allodynia by stimulation of the stimulator is performed by stimulating the bottom part of the affected foot, increasing the force incrementally (0-50 g), and measuring the hind paw withdraw threshold (force at the moment when the test body avoided the stimulator:gram) in triplicate at 5 min intervals.
4) The paw withdrawal threshold (PWT) was measured in duplicate at a fixed time within 2 weeks (day 10) and within 3 weeks (day 17) after administration of the test substance.

MMP-3 = details: MIA osteoarthritis SD rats, oral once daily 3 weeks
[2] = test system: MIA-induced osteoarthritis rat model (tissues of liver and stomach); test: Histopathology of stomach and liver (H&E); assay type: in vivo, Sprague Dawley rats; details: G5 tramadol HCl 30 mg/kg; for gastric tissue analysis / gastric irritation, summary in words / epithelial detachment of cardiac gland (stomach histopathology): G4 polmacoxib 0.3 mg/kg; for gastric tissue analysis / gastric irritation, summary in words: co-administration groups G6 and G7 (both doses); for epithelial detachment of cardiac gland (stomach histopathology): mild level in G3 and G4, G3 acetaminophen 300+tramadol HCl 30 mg/kg
Source text: Tissue sections were stained for histological evaluation.
1) Tissues of liver and stomach among isolated organs were sufficiently immobilized in 10% neutral buffered formalin solution, followed by general tissue treatment procedures such as trimming, dehydration and paraffin embedding to prepare tissue sections and cut them to about 4 μm. Thereafter, they were stained with Hematoxylin & Eosin (H&E) and examined microscopically.

[3] = test system: MIA-induced osteoarthritis rat model (stomach, liver); test: Gross necropsy observation after completion of the experiment; details: n=10 per group, G5 tramadol HCl 30 mg/kg, oral once daily 3 weeks
[4] = test system: MIA-induced osteoarthritis rat model (knee joint); test: Histological evaluation of knee joint (H&E, safranin O-fast green, modified Mankin score); assay type: in vivo, Sprague Dawley rats; details: compared to positive control group G3; G5 tramadol HCl 30 mg/kg, co-administration groups G6 and G7 (both doses)
Protocol: 2) The collected knee joint tissues were immobilized in 10% formalin for 24 hours, and decalcificated for 72 hours while exchanging the solution with 10% formic acid at a 24-hour time interval prior to tissue treatment. The sagittal section of the knee joint was prepared through a coronal section so that the medial and lateral condyle articular surface of femur and tibia were well identified.
3) Subsequently, after a general tissue treatment procedure such as dehydration, clearing and penetration, paraffin embedding was performed and a 5 μm thin slice of knee joint was prepared with a rotary microtome. It was subject to deparaffinization and hydration, followed by Hematoxylin & Eosin (H&E) staining.
4) For safranin-O fast green (SOFG) staining, after deparaffinization and hydration, the thin slice of knee joint was reacted in Weigert's iron hematoxylin solution (HT110232, Sigma, St Louis, USA) for 10 minutes and washed with water, and then stained in 0.02% fast green (FCF) solution (F7258, Sigma, St Louis, USA) for 5 minutes. Subsequently, it was reacted in 1% acetic acid solution and then stained with 0.1% safranin O solution (S2255, Sigma, St Louis). The slide stained with safranin O-fast green was washed for 5 minutes to have clear color of nucleus. After dehydration and clarification, it was sealed. […]

[5] = Body weight change and clinical observation in MIA-induced osteoarthritis rat model; details: MIA osteoarthritis SD rats, oral once daily 3 weeks; G3 acetaminophen 300 mg/kg+tramadol HCl 30 mg/kg, G4 polmacoxib 0.3 mg/kg, G5 tramadol HCl 30 mg/kg
Protocol: In order to evaluate therapeutic effect of osteoarthritis, an animal model of osteoarthritis was prepared in Sprague Dawley rats (n=10 per group).
1) Monosodium iodoacetate (MIA, I2512, Sigma, Poole, UK) was dissolved in 0.9% sterile saline for injection at a concentration of 60 mg/ml and prepared on the day of the experiment (day 0).
2) After group separation, animals (Sprague Dawley rats) were placed in an anesthesia chamber (Matrix, US/VME-2) and anesthetized using diethyl ether. Thereafter, subjects in the induced group (G2 to G9) were injected once with 50 μl of MIA per subject (MIA 3 mg/head) into a left knee joint space via a patellar tendon using an insulin syringe (BD™ insulin syringe with Ultra-Fine™ Short Needle, 31 gauge). The number of animals in each group was 10, and the negative control group (G1) was injected once with 50 μl of saline at the same position in the left knee joint.
Group separation was performed only on animals judged to have no quarantine abnormalities during acclimation period, followed by MIA administration. On the 6th day after MIA administration, the weight bearing of hind leg for a total of 100 subjects administered with MIA was measured and the affected subjects with high weight bearing of left hind leg were sequentially excluded to select 70 subjects. […]

[6] = 10-day evaluation, induced group G2 14.7 g
[7] = second evaluation (time not given; day 17 per method)

Row | Structure (SMILES) | paw withdrawal threshold (PWT) [1, 6] | paw withdrawal threshold (PWT) [1, 7] | level of MMP-3 in serum obtained after 3 weeks of treatment, in words (MMP-3) | gastric tissue analysis / gastric irritation, summary in words [2] | epithelial detachment of cardiac gland (stomach histopathology) ([2]; n=10 per group) | gastric wall thickening at gross necropsy ([3]; G3 acetaminophen 300 mg/kg+tramadol HCl 30 mg/kg) | gastric mucosal petechial hemorrhage at gross necropsy ([3]; G3 acetaminophen 300+tramadol HCl 30 mg/kg, G7 polmacoxib 0.3+tramadol HCl 30 mg/kg) | nodules on the surface of liver at gross necropsy [3] | cluster formation of chondrocytes, in words [4] | weight gain at end of test compared to average weight at beginning [5] | erosion of cardiac gland and fundic gland (stomach histopathology) ([2]; n=10 per group, oral once daily 3 weeks)
1 | CC1(C)OC(c2ccc(S(N)(=O)=O)cc2)=C(c2cccc(F)c2)C1=O [polmacoxib, 5-(4-(aminosulfonyl)-phenyl)-2,2-dimethyl-4-(3-fluorophenyl)-3(2H)-furanone] | 24.2 g | 24.2 g | lower MMP-3 levels compared to the groups G3 and G5 | epithelial detachment of pyloric | 4 cases |  |  |  |  |  | 
2 | COc1cccc(C2(O)CCCCC2CN(C)C)c1.Cl (stereo not drawn) [tramadol hydrochloride, 2-(dimethylaminomethyl)-1-(3-methoxyphenyl)] | 26.3 g | 26.3 g |  | epithelial detachments of cardia and pyloric and erosion | 2 cases | 3 cases | 3 cases | 1 case | improvement effects compared to the positive control group G3 | 18.5% | 4 cases
